US20250115596A1, “ESTERS OF 8-METHYL-8-AZABICYCLO[3.2.1] OCTAN-3-YL 3-HYDROXY-2-PHENYLPROPANOATE” (ADS Therapeutics LLC, priority 2022, published 2025)
Values after ≈ are worked out from the molar mass of the structure shown. Counter-ions that a name gives are not always drawn. Each block holds one molecule with its values, some of them ahead of it.

How the values were obtained:
Dutch Belted rabbits = assay: In vivo pharmacology study: pupil size after topical ocular instillation of eye drop formulation; conditions: for pupil size change from baseline: female Dutch Belted rabbits; for retention of pupil dilation during the measurement period: measured up to 24 hour after dosing
Procedure: The test compound was administered to each animal by topical ocular instillation of 40 μL of eye drop formulation just once at day 1. The pupil size of both eyes of all animals were measured at baseline (30 minutes before dosing), 0.5 hour, 1 hour, 2 hour, 4 hour, 6 hour, 8 hour, 12 hour, and 24 hour after dosing. Pupil sizes were measured in both eyes of all animals on 3 separate days during acclimation prior to dosing initiation. Set the light intensity in the procedure room so that the animal's pupil size was about 6-7 mm. Light intensity of the procedure room for pupil size measurement should be maintained constant throughout the pupil size measurement procedures in the study. Pupil size change from baseline was calculated for each eye of each individual animal separately for each postdose timepoint. Mean and standard error of pupil size change from baseline were calculated for each group per postdose timepoint and plotted mean of pupil change from baseline against timepoint comparisons.

physchem = conditions: organic solvent or mixture, thermodynamic from solid
[1] = 0.4% formulation in F6H8, single 40 μL eye drop

SMILES: CCCCCCCC/C=C\CCCCCCCC(=O)OCC(C(=O)O[C@H]1C[C@H]2CC[C@@H](C1)N2C)c1ccccc1 (stereo partly drawn) [Compound 1, 3-(((1R,3r,5S)-8-methyl-8-azabicyclo[3.2.1]octan-3-yl)oxy)-3-oxo-2-phenylpropyl (9Z)-octadec-9-enoate]
pupil size change from baseline (Dutch Belted rabbits; [1]): comparable pupil size dilation as the 0.01% atropine sulfate monohydrate
retention of pupil dilation during the measurement period (Dutch Belted rabbits; [1]): retained the pupil dilation throughout the measurement period
solubility at 30 min (physchem): 5 mg/mL (≈ 9.03 mM)

SMILES: CCCCC/C=C\C/C=C\CCCCCCCC(=O)OCC(C(=O)O[C@H]1C[C@H]2CC[C@@H](C1)N2C)c1ccccc1 (stereo partly drawn) [Compound 2, 3-(((1R,3r,5S)-8-methyl-8-azabicyclo[3.2.1]octan-3-yl)oxy)-3-oxo-2-phenylpropyl (9Z,12Z)-octadeca-9,12-dienoate]
pupil size change from baseline (Dutch Belted rabbits; [1]): over 10%
retention of pupil dilation during the measurement period (Dutch Belted rabbits; [1]): remained significantly dilated from baseline during the measurement period
solubility at 30 min (physchem): 3.87 mg/mL (≈ 7.01 mM)

SMILES: CCCCCCCCCCCCCCCC(=O)OCC(C(=O)O[C@H]1C[C@H]2CC[C@@H](C1)N2C)c1ccccc1 (some centres unmarked) [Compound 7, atropine palmitate]
solubility at 30 min (physchem): 5.61 mg/mL (≈ 10.6 mM)

SMILES: CCCCCC=CCCC(=O)OCC(C(=O)O[C@H]1C[C@H]2CC[C@@H](C1)N2C)c1ccccc1 (some centres unmarked) [Compound 13, atropine dec-4-enoate]
solubility at 30 min (physchem): 4.9 mg/mL (≈ 11.1 mM)

SMILES: CN1[C@@H]2CC[C@H]1C[C@@H](OC(=O)C(CO)c1ccccc1)C2 (some centres unmarked) [atropine sulfate monohydrate, reference compound]
pupil size change from baseline (Dutch Belted rabbits; 0.01% in normal saline, single 40 μL eye drop, 1 hour or 2 hour post-dose): about 5%

solubility at 30 min (physchem; perfluorohexyloctane (F6H8)): 0.0797 mg/mL (≈ 0.206 mM)
SMILES: CC(C)CCC[C@@H](C)[C@H]1CC[C@H]2[C@@H]3CC=C4C[C@@H](O)CC[C@]4(C)[C@H]3CC[C@]12C [cholesterol, reference compound]

SMILES: CCCCCCCCCCCCCCCCCC(=O)O[C@H]1CC[C@@]2(C)C(=CC[C@H]3[C@@H]4CC[C@H]([C@H](C)CCCC(C)C)[C@@]4(C)CC[C@@H]32)C1 [cholesteryl stearate, reference compound]
solubility at 30 min (physchem): 0.0262 mg/mL (≈ 0.0402 mM)
